Results: patent publication US20150344444A1, “BET-PROTEIN-INHIBITING DIHYDROXYQUINOXALINONES” (BAYER PHARMA AKTIENGESELLSCHAFT, priority 2012, published 2015)

Tests used:
[1] = target: T1, BRD4 Bromo Domain 1 [BRD4(1)] (Homo sapiens, UniProt O60885); assay: BRD4(1)/acetylated peptide H4 binding assay (TR-FRET); conditions: inhibition of interaction between His6-tagged BRD4(1) (amino acids 67-152) and acetylated histone H4 peptide
T1 construct: N-terminally His6-tagged BRD4(1) (amino acids 67-152); made in house; host or cells: E. coli
How it was run: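 His6-BRD4(1) (aa 67-152, E. coli), 10 nM final, with biotinylated tetra-acetylated H4 peptide in HEPES pH 7.5 buffer; 11 compound concentrations 0.1 nM-20 μM in duplicate, 10 min preincubation, then 1 h at 22 °C and ≥3 h at 4 °C. TR-FRET 665/620 ratio; IC50 by 4-parameter fit.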

[2] = system: B16F10 cells; assay: B16F10 cell proliferation assay (alamarBlue); assay type: cell-based; conditions: B16-F10; inhibition of cell proliferation, 96 hours, mouse melanoma cell line
How it was run: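 Mouse B16F10 melanoma cells (300-500/well, DMEM, 10% FCS) treated with compound at 1E-5 to 1E-8 M for 96 h at 37° C. alamarBlue fluorescence (ex 530/em 590 nm) before and after treatment; the difference compared to buffer-treated cells gives IC50 for proliferation inhibition.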

Row | IC50 [1] [µM] | IC50 [2] [µM] | Structure (SMILES)
1 | 0.12 | 0.079 | COc1ccc(CN2c3cc(Nc4ccc(S(=O)(=O)N5CCOCC5)cc4)ccc3N(C)C(=O)[C@H]2C)cc1 [Example 42, (3R)-4-(4-methoxybenzyl)-1,3-dimethyl-6-{[4-(morpholin-4-ylsulphonyl)phenyl]amino}-3,4-dihydroquinoxalin-2(1H)-one]
2 | 0.103 | 0.212 | COc1ccc(CN2c3cc(Nc4ccc(S(=O)(=O)N5CCN(C)CC5)cc4)ccc3N(C)C(=O)[C@H]2C)cc1 [Example 43, (3R)-4-(4-methoxybenzyl)-1,3-dimethyl-6-({4-[(4-methylpiperazin-1-yl)sulphonyl]phenyl}amino)-3,4-dihydroquinoxalin-2(1H)-one]
3 | 0.055 | 0.46 | COc1ccc(CN2c3cc(Nc4ccc(S(=O)(=O)N5CCN(C(C)C)CC5)cc4)ccc3N(C)C(=O)[C@H]2C)cc1 [Example 44, (3R)-4-(4-methoxybenzyl)-1,3-dimethyl-6-[(4-{[4-(propan-2-yl)piperazin-1-yl]sulphonyl}phenyl)amino]-3,4-dihydroquinoxalin-2(1H)-one]
4 | 0.264 | 1.57 | C[C@@H]1C(=O)N(C)c2ccc(Nc3ccc(S(=O)(=O)N(C)C)cc3)cc2N1C1CCCCCC1 [Example 45, 4-{[(3R)-4-cycloheptyl-1,3-dimethyl-2-oxo-1,2,3,4-tetrahydroquinoxalin-6-yl]amino}-N,N-dimethylbenzenesulphonamide]
5 | 0.145 | 0.6 | C[C@@H]1C(=O)N(C)c2ccc(Nc3ccc(S(=O)(=O)N(C)C)cc3)cc2N1C1CCOCC1 [Example 46, 4-{[(3R)-1,3-dimethyl-2-oxo-4-(tetrahydro-2H-pyran-4-yl)-1,2,3,4-tetrahydroquinoxalin-6-yl]amino}-N,N-dimethylbenzenesulphonamide]
6 | 0.095 | 0.423 | C[C@@H]1C(=O)N(C)c2ccc(Nc3ccc(S(=O)(=O)N4CCOCC4)cc3)cc2N1C1CCOCC1 [Example 47, (3R)-1,3-dimethyl-6-{[4-(morpholin-4-ylsulphonyl)phenyl]amino}-4-(tetrahydro-2H-pyran-4-yl)-3,4-dihydroquinoxalin-2(1H)-one]
7 | 0.237 | 1.45 | C[C@@H]1C(=O)N(C)c2ccc(Nc3ccc(S(=O)(=O)N4CCN(C)CC4)cc3)cc2N1C1CCOCC1 [Example 48, (3R)-1,3-dimethyl-6-({4-[(4-methylpiperazin-1-yl)sulphonyl]phenyl}amino)-4-(tetrahydro-2H-pyran-4-yl)-3,4-dihydroquinoxalin-2(1H)-one]
